Biological target: T1, human NHE3 (Homo sapiens, UniProt P48764)
T1 construct: myc; expressed in transfected cells
T1 sequence (P48764 26-834): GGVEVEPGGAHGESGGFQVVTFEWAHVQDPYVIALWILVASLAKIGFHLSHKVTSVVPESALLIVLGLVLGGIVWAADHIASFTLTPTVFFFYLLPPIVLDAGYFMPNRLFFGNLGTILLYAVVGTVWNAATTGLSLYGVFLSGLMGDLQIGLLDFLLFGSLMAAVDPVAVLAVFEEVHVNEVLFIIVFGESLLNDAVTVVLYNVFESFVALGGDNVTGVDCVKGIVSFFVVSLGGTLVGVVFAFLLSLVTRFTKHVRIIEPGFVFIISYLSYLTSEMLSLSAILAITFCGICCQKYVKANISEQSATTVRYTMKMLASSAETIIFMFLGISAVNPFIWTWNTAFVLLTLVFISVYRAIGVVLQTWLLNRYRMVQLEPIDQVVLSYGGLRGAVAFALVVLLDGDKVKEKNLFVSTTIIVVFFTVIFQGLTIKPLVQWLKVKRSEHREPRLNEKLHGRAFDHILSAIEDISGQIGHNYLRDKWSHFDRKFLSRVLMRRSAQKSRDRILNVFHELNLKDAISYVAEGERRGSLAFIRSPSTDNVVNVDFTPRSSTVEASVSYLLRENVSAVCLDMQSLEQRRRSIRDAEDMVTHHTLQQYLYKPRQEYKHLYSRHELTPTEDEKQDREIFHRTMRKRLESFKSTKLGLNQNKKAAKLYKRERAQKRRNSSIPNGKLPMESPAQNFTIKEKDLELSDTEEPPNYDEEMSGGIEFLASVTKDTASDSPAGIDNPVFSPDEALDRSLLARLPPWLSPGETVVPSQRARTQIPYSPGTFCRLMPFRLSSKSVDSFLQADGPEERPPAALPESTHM
Assay: In vitro NHE3 inhibition activity (intracellular pH recovery, BCECF-AM, NHD C8 cells overexpressing human NHE3)
Assay type: cell-based
Conditions: geometric mean of individual IC50
Excerpt: In Vitro NHE3 Inhibition Activity
To create an NHE3 assay, cells selectively expressing NHE3 are generated by overexpressing human NHE3 in an endogenously NHE-deficient cell line. The NHE-deficient cell line is created by chemical-induced mutagenesis. After the mutagenesis, NHE-deficient cells are selected by subjecting lithium (Li) loaded cells to an acidic extracellular environment. Under these conditions, NHE exchanges intracellular Li^+ for extracellular protons, thus only NHE-deficient cells can avoid a toxic intracellular acidosis and survive.
An NHE-deficient cell line, NHD C8, is generated by mutagenesis and selection from the cell line Dede (ATCC® CCL-39™). The mutagenesis is induced by treating Dede CCL-39 cells with EMS (Sigma-Aldrich) in growth media at a final concentration of 500 μg/ml for 20 h. […]
To measure NHE activity, the intracellular pH of the cells is reduced by addition of NH4Cl. The sodium-dependent intracellular pH change is then measured by the intracellular pH-sensitive fluorescein dye, BCECF-AM (Molecular Probes-ThermoFisher Scientific). […] The plate is immediately read for fluorescent intensity at an excitation wavelength of 505 nm and emission wavelength of 550 nm. […]

IC50: 5.76 nM
Structure (SMILES): CN1Cc2c(Cl)cc(Cl)cc2[C@H](c2cccc(S(=O)(=O)NCCOCCOCCN/C(=N\C(N)=O)NCCCCN/C(=N/C(N)=O)NCCOCCOCCNS(=O)(=O)c3cccc([C@@H]4CN(C)Cc5c(Cl)cc(Cl)cc54)c3)c2)C1.Cl.Cl [Example 2, [[4-[[N′-Carbamoyl-N-[2-[2-[2-[[3-[(4S)-6,8-dichloro-2-methyl-3,4-dihydro-1H-isoquinolin-4-yl]phenyl]sulfonylamino]ethoxy]ethoxy]ethyl]carbamimidoyl]amino]butylamino]-[2-[2-[2-[[3-[(4S)-6,8-dichloro-2-methyl-3,4-dihydro-1H-isoquinolin-4-yl]phenyl]sulfonylamino]ethoxy]ethoxy]ethylamino]methylene]urea dihydrochloride]

From US12428377B2, “Sodium-hydrogen exchanger 3 inhibitor compounds” (Eli Lilly and Company, priority 2019, dated 2025)
